From US10100064B2, “Purine inhibitors of human phosphatidylinositol 3-kinase delta” (Merck Sharp & Dohme Corp., priority 2014, dated 2018) come the findings set out here.

One experiment addresses T1, PI3Kalpha (Homo sapiens, UniProt P42336).
T1 construct: purchased Upstate; Millipore 14-602
The experiment in a line: HTRF PI3K biochemical assay, alpha isoform (selectivity versus delta). The following applies: relative ratio PI3K-alpha IC50 value / PI3K-delta IC50 value. The source says:
(§1) HTRF PI3K Biochemical Assay to Measure Intrinsic Potency of Compound Inhibitors
(§2) The PI3-Kinase biochemical assays were developed to measure the intrinsic potency and compound dependent inhibition of the alpha, beta, delta, and gamma PI3K isoform enzymes. This assay was developed and further optimized from a kit produced by Upstate (Millipore catalog #33-047) and has been configured for HTS and SAR screening. Briefly, this procedure exploits the exquisite specificity and high affinity binding of […] phosphatidyl(3,4,5)triphosphate (PIP3) to the GRP1 pleckstrin homology (PH) domain to generate the signal. In the absence of PIP3, an HTRF (Homogeneous Time-Resolved Fluorescence energy transfer) complex is formed consisting of europium (Eu)-labeled anti-GST, GSTtagged GRP1-PH domain, biotin-PIP3 and streptavidin conjugated APC. The native PIP3 produced by PI3-Kinase activity disrupts in a competitive manner the biotin-PIP3 from the PH domain, resulting in the loss of energy transfer (HTRF complex) and a decrease in the signal. The format of this assay is the same for all 4 isoforms of PI3K; the differences lie in the concentration of enzyme used to achieve robust assay window. The alpha, beta, and delta assays are run at 0.5, 1, and 0.3 nM enzymes and the gamma assay is run at 5 nM enzyme. The ATP concentration is 100 uM in the alpha, beta, and delta assays and 50 uM ATP in the gamma assay. All reactions are run at 5 uM PIP2.
(§3) Compounds are serially diluted (3-fold in 100% DMSO) across a 384-well polypropylene source plated from column 3 to column 12 and column 13 to column 22, to yield 10 concentration dose response for each test compound. Columns 1, 2, 23 and 24 contain either only DMSO or pharmacological known control inhibitor. Once titrations are made, 2.5 nL of the compounds on 384 well plates are reformatted and transferred by acoustic dispense in quadruplicates to a 1536 assay plate (Greiner) to assay across all four PI3K isoform enzymes.
(§4) The PI3-Kinase biochemical assay was optimized using the HTRF kit provided by Upstate (Millipore). The assay kit contains six reagents: 1) 4× Reaction Buffer; 2) native PIP2 (substrate); 3) Stop (EDTA); 4) Detection Mix A (Streptavidin-APC); 5) Detection Mix B (Eu-labeled Anti-GST plus GST-tagged PH-domain); 6) Detection Mix C. In addition, the following items were obtained or purchased; PI3Kinase (alpha 14-602, beta 14-603, gamma 14-558 and delta 14-604 from Upstate; Millipore), dithiothreitol (Sigma, D-5545), Adenosine-5′ triphosphate (InVitrogen, Cat#AS001A), native PIP3 (PI(3,4,5)P3, diC8, H^+, CELLSIGNALS, INC. Cat #907) DMSO (Sigma, 472301).
(§5) PI3Kinase Reaction Buffer is prepared by dilution the stock 1:4 with de-ionized water. DTT, PIP2 and Biotin-PIP3 were added to 1536 assay plate at a final concentration of 5 mM, […] 25 nM on the day of use. Enzyme addition and compound pre-incubation are initiated by the addition of 1.25 ul of PI3K (at twice its final concentration) in the 1× reaction buffer to all wells using a BioRaptor. Plates are incubated at room temperature for 15 minutes. Reactions are initiated by addition of 1.25 ul of 2× substrate solution (PIP2 and ATP in 1× reaction buffer) using BioRaptor. Plates are incubated in humidified chamber at room temperature for one hour. Reactions are quenched by addition of 0.625 uL of stop solution to all wells using the BioRaptor. The quenched reactions are then processed to detect product formation by adding 0.625 uL of Detection Solution to all wells using the BioRaptor (Detection mix C, Detection Mix A, and Detection Mix B combined together in an 18:1:1 ratio prepared 2 hours prior to use). Following a one hour incubation in the dark, the HTRF signal is measured on the Envision plate reader set for 330 nm excitation and dual emission detection at […]. […]
A general note: TR-FRET usually uses a lanthanide donor and a delayed reading to cut background.

The target in the next experiment is T2, PI3Kdelta (Homo sapiens, UniProt O00329).
T2 construct: purchased Upstate; Millipore 14-604
The experiment in a line: HTRF PI3K biochemical assay, delta isoform. The following applies: 0.3 nM enzyme, 100 uM ATP, 5 uM PIP2, form screened (Neutral or TFA salt) given per compound.
Source text: as §1, §2, §3, §4, §5

T2 sequence (O00329 whole entry): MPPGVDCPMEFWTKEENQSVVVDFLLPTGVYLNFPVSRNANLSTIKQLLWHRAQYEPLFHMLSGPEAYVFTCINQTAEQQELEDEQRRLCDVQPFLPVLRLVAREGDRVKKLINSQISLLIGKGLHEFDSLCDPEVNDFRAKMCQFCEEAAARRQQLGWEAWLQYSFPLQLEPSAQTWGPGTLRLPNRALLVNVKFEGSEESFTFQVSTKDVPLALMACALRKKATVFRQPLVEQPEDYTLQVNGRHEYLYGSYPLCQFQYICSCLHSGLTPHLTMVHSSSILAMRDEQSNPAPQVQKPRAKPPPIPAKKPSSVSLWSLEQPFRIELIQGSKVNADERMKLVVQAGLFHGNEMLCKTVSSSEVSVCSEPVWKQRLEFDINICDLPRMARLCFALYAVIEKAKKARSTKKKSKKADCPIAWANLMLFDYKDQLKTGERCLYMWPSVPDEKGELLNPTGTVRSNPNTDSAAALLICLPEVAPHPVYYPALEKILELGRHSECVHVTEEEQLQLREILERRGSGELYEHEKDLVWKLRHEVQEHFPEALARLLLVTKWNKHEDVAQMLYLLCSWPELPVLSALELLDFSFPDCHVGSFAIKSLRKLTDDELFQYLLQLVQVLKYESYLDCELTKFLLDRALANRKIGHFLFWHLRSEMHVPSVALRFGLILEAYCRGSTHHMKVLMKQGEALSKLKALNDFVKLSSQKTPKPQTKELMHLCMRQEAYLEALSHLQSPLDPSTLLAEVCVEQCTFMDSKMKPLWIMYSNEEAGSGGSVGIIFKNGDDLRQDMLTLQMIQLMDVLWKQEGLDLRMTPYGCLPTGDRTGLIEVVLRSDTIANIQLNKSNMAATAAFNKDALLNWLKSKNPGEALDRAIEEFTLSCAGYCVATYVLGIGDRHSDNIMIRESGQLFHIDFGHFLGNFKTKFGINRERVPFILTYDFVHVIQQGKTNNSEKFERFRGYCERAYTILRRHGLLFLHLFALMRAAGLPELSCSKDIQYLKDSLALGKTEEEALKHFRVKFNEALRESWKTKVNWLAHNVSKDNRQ
T2 sequence (P27986 whole entry partner): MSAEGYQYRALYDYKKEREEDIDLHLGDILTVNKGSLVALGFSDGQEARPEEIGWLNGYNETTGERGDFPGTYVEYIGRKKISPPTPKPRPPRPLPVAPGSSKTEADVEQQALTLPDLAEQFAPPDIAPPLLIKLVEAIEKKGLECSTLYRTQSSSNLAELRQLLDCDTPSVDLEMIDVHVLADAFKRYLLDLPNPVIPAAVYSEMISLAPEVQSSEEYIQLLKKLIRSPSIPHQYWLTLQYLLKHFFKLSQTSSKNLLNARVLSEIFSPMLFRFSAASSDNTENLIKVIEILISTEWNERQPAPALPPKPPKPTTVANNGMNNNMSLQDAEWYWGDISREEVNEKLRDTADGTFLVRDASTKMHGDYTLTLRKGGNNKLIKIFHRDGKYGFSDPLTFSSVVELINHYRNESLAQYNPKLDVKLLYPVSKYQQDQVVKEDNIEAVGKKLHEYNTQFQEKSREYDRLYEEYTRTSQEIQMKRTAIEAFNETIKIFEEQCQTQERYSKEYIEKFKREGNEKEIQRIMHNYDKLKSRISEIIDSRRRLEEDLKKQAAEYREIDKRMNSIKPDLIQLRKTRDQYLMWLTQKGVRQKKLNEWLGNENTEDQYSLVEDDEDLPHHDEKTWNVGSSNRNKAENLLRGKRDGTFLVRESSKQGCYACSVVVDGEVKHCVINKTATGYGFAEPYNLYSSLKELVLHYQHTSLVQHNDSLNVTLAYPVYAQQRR
T1 sequence (P42336 whole entry): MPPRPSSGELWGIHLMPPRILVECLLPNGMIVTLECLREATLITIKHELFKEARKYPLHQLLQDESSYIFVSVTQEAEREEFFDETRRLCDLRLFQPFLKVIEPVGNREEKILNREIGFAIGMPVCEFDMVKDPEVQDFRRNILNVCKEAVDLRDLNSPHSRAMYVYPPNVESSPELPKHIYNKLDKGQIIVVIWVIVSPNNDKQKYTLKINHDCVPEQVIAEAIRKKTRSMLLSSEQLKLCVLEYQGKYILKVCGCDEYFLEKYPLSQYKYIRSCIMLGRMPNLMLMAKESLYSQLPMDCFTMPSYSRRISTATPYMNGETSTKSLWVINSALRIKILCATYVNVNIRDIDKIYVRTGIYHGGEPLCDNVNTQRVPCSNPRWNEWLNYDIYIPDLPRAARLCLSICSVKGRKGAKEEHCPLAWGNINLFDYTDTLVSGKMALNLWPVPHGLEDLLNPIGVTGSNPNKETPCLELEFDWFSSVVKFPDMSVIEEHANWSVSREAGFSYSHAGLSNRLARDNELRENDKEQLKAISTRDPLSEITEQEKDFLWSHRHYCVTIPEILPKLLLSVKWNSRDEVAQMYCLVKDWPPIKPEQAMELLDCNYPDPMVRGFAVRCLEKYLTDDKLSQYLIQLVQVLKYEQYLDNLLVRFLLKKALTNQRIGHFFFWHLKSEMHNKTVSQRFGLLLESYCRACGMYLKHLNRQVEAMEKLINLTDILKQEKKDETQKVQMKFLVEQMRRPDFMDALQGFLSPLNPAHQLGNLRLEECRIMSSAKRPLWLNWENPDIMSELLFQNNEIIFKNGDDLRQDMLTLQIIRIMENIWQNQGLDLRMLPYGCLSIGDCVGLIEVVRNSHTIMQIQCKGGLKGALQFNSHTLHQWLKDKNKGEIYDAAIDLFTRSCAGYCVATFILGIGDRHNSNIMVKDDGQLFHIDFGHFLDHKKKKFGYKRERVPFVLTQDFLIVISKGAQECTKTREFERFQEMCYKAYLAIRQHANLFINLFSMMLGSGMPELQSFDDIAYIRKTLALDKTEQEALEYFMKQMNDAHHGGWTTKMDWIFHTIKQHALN
T1 sequence (P27986 whole entry partner): as the sequence (P27986 whole entry partner) above

Broadly, the IC50 is the point on the concentration scale where inhibition reaches its midpoint. On to `CCn1c(C(F)F)nc2c(NC3CCc4nnc(C(C)C)n4C3)ncnc21` (single isomer, unassigned) [Compound 1-8, (S or R)-8-(difluoromethyl)-9-ethyl-N-[3-(1-methylethyl)-5,6,7,8-tetrahydro[1,2,4]triazolo[4,3-a]pyridin-6-yl]-9H-purin-6-amine], for which the “Selectivity versus PI3Kalpha” value at PI3Kalpha was greater than 10. For the same compound, at PI3Kdelta, the IC50 came to 460 nM.
In the same order, the values of `CCn1c(C(F)F)nc2c(NC3CCc4nnc(C(C)C)n4C3)ncnc21` (single isomer, unassigned) [Compound 1-9, (S or R)-8-(difluoromethyl)-9-ethyl-N-[3-(1-methylethyl)-5,6,7,8-tetrahydro[1,2,4]triazolo[4,3-a]pyridin-6-yl]-9H-purin-6-amine] are greater than 10 and 16 nM.
In the same order, the values of `CCn1c(-c2ccc(C(F)(F)F)nc2)nc2c(NC3CCc4nnc(C(C)C)n4C3)ncnc21` (single isomer, unassigned) [Compound 1-18, (S or R)-9-ethyl-N-[3-(1-methylethyl)-5,6,7,8-tetrahydro[1,2,4]triazolo[4,3-a]pyridin-6-yl]-8-[6-(trifluoromethyl)pyridin-3-yl]-9H-purin-6-amine] are greater than 10 and less than 1 nM.
In the same order, the values of `CCn1c(-c2ccc(C(F)(F)F)nc2)nc2c(NC3CCc4nnc(C(C)C)n4C3)ncnc21` (single isomer, unassigned) [Compound 1-19, (S or R)-9-ethyl-N-[3-(1-methylethyl)-5,6,7,8-tetrahydro[1,2,4]triazolo[4,3-a]pyridin-6-yl]-8-(6-(trifluoromethyl)pyridin-3-yl]-9H-purin-6-amine] are greater than 10 and 31 nM.
On to `CCn1c(-c2ccc(C(F)(F)F)cc2)nc2c(NC3CCc4nnc(C(C)C)n4C3)ncnc21` (single isomer, unassigned) [Compound 1-20, (S or R)-9-ethyl-N-[(6S)-3-(1-methylethyl)-5,6,7,8-tetrahydro[1,2,4]triazolo[4,3-a]pyridin-6-yl]-8-[4-(trifluoromethyl)phenyl]-9H-purin-6-amine], for which the “Selectivity versus PI3Kalpha” value at PI3Kalpha is greater than 10. In addition, on PI3Kdelta, the IC50 was less than 1 nM.
In the same order, the values of `CCn1c(-c2cnc(OC)c(F)c2)nc2c(NC3CCc4nnc(C(C)C)n4C3)ncnc21` (single isomer, unassigned) [Compound 1-21, (S or R)-9-ethyl-8-(5-fluoro-6-methoxypyridin-3-yl)-N-[3-(1-methylethyl)-5,6,7,8-tetrahydro[1,2,4]triazolo[4,3-a]pyridin-6-yl]-9H-purin-6-amine] are greater than 10 and less than 1 nM.
In the same order, the values of `CCn1c(-c2cnc(OC)c(Cl)c2)nc2c(NC3CCc4nnc(C(C)C)n4C3)ncnc21` (single isomer, unassigned) [Compound 1-22, (S or R)-8-(5-chloro-6-methoxypyridin-3-yl)-9-ethyl-N-[3-(1-methylethyl)-5,6,7,8-tetrahydro[1,2,4]triazolo[4,3-a]pyridin-6-yl]-9H-purin-6-amine] are greater than 10 and 221 nM.
In the same order, the values of `CCn1c(-c2cnn(-c3ccccc3)c2)nc2c(NC3CCc4nnc(C(C)C)n4C3)ncnc21` (single isomer, unassigned) [Compound 1-23, (S or R)-9-ethyl-N-[3-(1-mtthylethyl)-5,6,7,8-tetrahydro[1,2,4]triazolo[4,3-a]pyridin-6-yl]-8-(1-phenyl-1H-pyrazol-4-yl)-9H-purin-6-amine] are greater than 10 and less than 1 nM.
Regarding `CCn1c(-c2ccc(C(F)F)cc2)nc2c(NC3CCc4nnc(C(C)C)n4C3)ncnc21` (single isomer, unassigned) [Compound 1-24, 8-[4-(difluoromethyl)phenyl]-9-ethyl-N-[(6(S or R))-3-(1-methylethyl)-5,6,7,8-tetrahydro[1,2,4]triazolo[4,3-a]pyridin-6-yl]-9H-purin-6-amine], at PI3Kalpha, the “Selectivity versus PI3Kalpha” value was greater than 10. For the same compound, the 50% inhibitory concentration (IC50) at PI3Kdelta came to 3.5 nM.
Regarding `CCn1c(-n2cnc(C(F)(F)F)c2)nc2c(NC3CCc4nnc(C(C)C)n4C3)ncnc21` (single isomer, unassigned) [Compound 1-25, 9-ethyl-N-[(6(S or R))-3-(1-methylethyl)-5,6,7,8-tetrahydro[1,2,4]triazolo[4,3-a]pyridin-6-yl]-8-[4-(trifluoromethyl)-1H-imidazol-1-yl]-9H-purin-6-amine], the “Selectivity versus PI3Kalpha” value at PI3Kalpha is greater than 10. In addition, the IC50 on PI3Kdelta stood at 24 nM.
In the same order, the values of `CCn1c(I)nc2c(NC3CCc4nnc(C5CC5)n4C3)ncnc21` (single isomer, unassigned) [Compound 1-26, (S or R)-N-[3-cyclopropyl-5,6,7,8-tetrahydro[1,2,4]triazolo[4,3-a]pyridin-6-yl]-9-ethyl-8-iodo-9H-purin-6-amine] are greater than 10 and 12 nM.
In the same order, the values of `CCn1c(I)nc2c(NC3CCc4nnc(C5CC5)n4C3)ncnc21` (single isomer, unassigned) [Compound 1-27, (S or R)-N-[3-cyclopropyl-5,6,7,8-tetrahydro[1,2,4]triazolo[4,3-a]pyridin-6-yl]-9-ethyl-8-iodo-9H-purin-6-amine] are greater than 10 and 151 nM.
For the compound `CCn1c(-c2ccc(C(F)(F)F)cc2)nc2c(NC3CCc4nnc(C5CC5)n4C3)ncnc21` (single isomer, unassigned) [Compound 1-28, (S or R)-N-(3-cyclopropyl-5,6,7,8-tetrahydro[1,2,4]triazolo[4,3-a]pyridin-6-yl)-9-ethyl-8-[4-(trifluoromethyl)phenyl]-9H-purin-6-amine], the “Selectivity versus PI3Kalpha” value at PI3Kalpha is reported as greater than 10. Besides, the IC50 at PI3Kdelta is 1.4 nM.
On to `CCn1c(-c2ccc(C(F)(F)F)cc2)nc2c(NC3CCc4nnc(C5CC5)n4C3)ncnc21` (single isomer, unassigned) [Compound 1-29, (S or R)-N-(3-cyclopropyl-5,6,7,8-tetrahydro[1,2,4]triazolo[4,3-a]pyridin-6-yl)-9-ethyl-8-[4-(trifluoromethyl)phenyl]-9H-purin-6-amine], for which the “Selectivity versus PI3Kalpha” value on PI3Kalpha was greater than 10. The IC50 on PI3Kdelta amounted to 49 nM.
In the same order, the values of `CCn1c(-c2ccc(S(C)(=O)=O)nc2)nc2c(NC3CCc4nnc(C5CC5)n4C3)ncnc21` (single isomer, unassigned) [Compound 1-30, (S or R)-N-[(6S)-3-cyclopropyl-5,6,7,8-tetrahydro[1,2,4]triazolo[4,3-a]pyridin-6-yl]-9-ethyl-8-[6-(methylsulfonyl)pyridin-3-yl]-9H-purin-6-amine] are greater than 10 and 8.3 nM.
`CCn1c(-c2cnc(C)nc2)nc2c(OC3CCc4nnc(C5CC5)n4C3)ncnc21` (single isomer, unassigned) [Compound 1-31, (S or R)-6-{[3-cyclopropyl-5,6,7,8-tetrahydro[1,2,4]triazolo[4,3-a]pyridin-6-yl]oxy}-9-ethyl-8-(2-methylpyrimidin-5-yl)-9H-purine]: the “Selectivity versus PI3Kalpha” value at PI3Kalpha is greater than 10. Besides, the IC50 on PI3Kdelta stood at 220 nM.
